Data taken from ChEMBL document CHEMBL1140846, “Convenient QSAR model for predicting the complexation of structurally diverse compounds with beta-cyclodextrins” (Bioorg Med Chem, 2009).

Test: Binding affinity to beta cyclodextrin
In the case of `C[C@@H]1C[C@H]2[C@@H]3CCC4=CC(=O)C=C[C@]4(C)[C@@]3(F)[C@@H](O)C[C@]2(C)[C@@]1(O)C(=O)CO` [DEXAMETHASONE], the “log Ks” value is reported as 3.65.
In the case of `C[C@H]1C[C@H]2[C@@H]3CCC4=CC(=O)C=C[C@]4(C)[C@@]3(F)[C@@H](O)C[C@]2(C)[C@@]1(O)C(=O)CO` [BETAMETHASONE], the “log Ks” value is reported as 3.73.
For `OCc1ccccc1` [BENZYL ALCOHOL], the “log Ks” value was 1.71.
With `O=Cc1ccc(O)cc1` [4-HYDROXYBENZALDEHYDE] the “log Ks” value was 1.75.
In the case of `O=[N+]([O-])c1ccc(Cl)cc1`, the “log Ks” value is reported as 2.15.
With `O=[N+]([O-])c1ccccc1` [NITROBENZENE] the “log Ks” value was 2.04.
With `C[C@@H]1C[C@H]2[C@@H]3C[C@H](F)C4=CC(=O)C=C[C@]4(C)[C@H]3[C@@H](O)C[C@]2(C)[C@@]1(O)C(=O)CO` [PARAMETHASONE] the “log Ks” value was 3.4.
For `CC(=O)OCC(=O)[C@@]1(O)CC[C@H]2[C@@H]3CCC4=CC(=O)CC[C@]4(C)[C@H]3[C@@H](O)C[C@@]21C` [HYDROCORTISONE ACETATE], the “log Ks” value was 3.51.
With `Ic1ccc(I)cc1` the “log Ks” value was 3.17.
For `CC(=O)Oc1ccc(C(C)C)cc1`, the “log Ks” value was 2.88.
For `CCNCC` [DIETHYLAMINE], the “log Ks” value was 1.36.
For `CN(C)c1ccccc1`, the “log Ks” value was 2.36.
In the case of `CC(=O)Oc1cccc(C)c1`, the “log Ks” value is reported as 2.21.
With `CC(=O)Oc1ccc(I)cc1` the “log Ks” value was 3.
For `CCCCn1ccnc1`, the “log Ks” value was 2.19.
In the case of `CC(=O)OCC(=O)[C@@]1(O)CC[C@H]2[C@@H]3CCC4=CC(=O)C=C[C@]4(C)[C@H]3[C@@H](O)C[C@@]21C` [PREDNISOLONE ACETATE], the “log Ks” value is reported as 3.76.
In the case of `CCOC(=O)c1ccccc1` [ETHYL BENZOATE], the “log Ks” value is reported as 2.73.
With `CC(=O)Oc1cccc(I)c1` the “log Ks” value was 3.07.
In the case of `CCC(=O)c1ccc(O)cc1` [PAROXYPROPIONE], the “log Ks” value is reported as 2.63.
For `OC1CCCCCCC1` [CYCLOOCTANOL], the “log Ks” value was 3.3.
For `CCC1(c2ccccc2)C(=O)NC(=O)N(C)C1=O` (centres undefined) [MEPHOBARBITAL], the “log Ks” value was 3.16.
In the case of `Nc1ccc(S(=O)(=O)Nc2ccccn2)cc1` [SULFAPYRIDINE], the “log Ks” value is reported as 2.7.
In the case of `O=C(O)c1ccccc1Nc1ccccc1` [FENAMIC ACID], the “log Ks” value is reported as 2.89.
With `CCC(C)(O)CC` the “log Ks” value was 2.15.
In the case of `C(=C\c1ccccc1)/CN1CCN(C(c2ccccc2)c2ccccc2)CC1` [CINNARIZINE], the “log Ks” value is reported as 3.64.
With `N#Cc1ccccc1` [BENZONITRILE] the “log Ks” value was 2.23.
For `CC(C)c1ccc(O)cc1`, the “log Ks” value was 3.58.
In the case of `CCOc1cccc(OC(C)=O)c1`, the “log Ks” value is reported as 2.49.
With `C[C@H](CCC(=O)O)[C@H]1CC[C@H]2[C@@H]3[C@H](O)C[C@@H]4C[C@H](O)CC[C@]4(C)[C@H]3CC[C@]12C` [CHENODIOL] the “log Ks” value was 4.36.
For `Oc1ccc(I)cc1`, the “log Ks” value was 2.98.
For `CCCCC[C@H](O)/C=C/[C@H]1[C@H](O)CC(=O)[C@@H]1C/C=C\CCCC(=O)O` [DINOPROSTONE], the “log Ks” value was 3.09.
In the case of `c1ccc2c(c1)[nH]c1ccccc12` [CARBAZOLE], the “log Ks” value is reported as 2.44.
In the case of `OC[C@H](O)COCc1ccccc1`, the “log Ks” value is reported as 2.11.
In the case of `CC(=O)Oc1cccc(CC(C)C)c1`, the “log Ks” value is reported as 3.83.
For `COc1cc(NS(=O)(=O)c2ccc(N)cc2)nc(OC)n1` [SULFADIMETHOXINE], the “log Ks” value was 2.26.
For `CCCC(C)O` (centres undefined) [2-PENTANOL], the “log Ks” value was 1.49.
With `C=CCC1(CC=C)C(=O)NC(=O)NC1=O` [ALLOBARBITAL] the “log Ks” value was 1.98.
For `CC1=CC(=O)c2ccccc2C1=O` [MENADIONE], the “log Ks” value was 2.27.
In the case of `Oc1ccc(Cl)cc1` [PARACHLOROPHENOL], the “log Ks” value is reported as 2.61.
For `OCCO` [ETHYLENE GLYCOL], the “log Ks” value was -0.19.
For `CCCCc1ccc(O)cc1`, the “log Ks” value was 3.97.
With `CCC(C)(C)c1ccc(O)cc1` the “log Ks” value was 4.7.
With `Nc1ccc([N+](=O)[O-])cc1` [4-NITROANILINE] the “log Ks” value was 2.48.
For `CCCCCc1ccc(OC(C)=O)cc1`, the “log Ks” value was 3.8.
With `COc1cc(O)cc(OC)c1` the “log Ks” value was 2.34.
For `CC=O`, the “log Ks” value was -0.64.
With `CCC(C)(C)O` [AMYLENE HYDRATE] the “log Ks” value was 1.91.
For `COc1ccc(O)cc1` [MEQUINOL], the “log Ks” value was 2.21.
In the case of `C[C@H](CCC(=O)O)[C@H]1CC[C@H]2[C@@H]3C(=O)C[C@@H]4CC(=O)CC[C@]4(C)[C@H]3CC(=O)[C@]12C` [DEHYDROCHOLIC ACID], the “log Ks” value is reported as 3.38.
With `CCCCOC(=O)c1ccc(O)cc1` [BUTYLPARABEN] the “log Ks” value was 3.39.
For `COC1=CC(=O)C[C@@H](C)[C@]12Oc1c(Cl)c(OC)cc(OC)c1C2=O` [GRISEOFULVIN], the “log Ks” value was 1.47.
For `c1ccccc1` [BENZENE], the “log Ks” value was 2.23.
With `Cc1cccc(O)c1` [METACRESOL] the “log Ks” value was 1.98.
In the case of `CCOC(=O)c1ccc(O)cc1` [ETHYLPARABEN], the “log Ks” value is reported as 3.01.
For `COc1cccc(O)c1` [1-hydroxy-3-methoxybenzene], the “log Ks” value was 2.11.
With `Cc1cccc(N(C)C(=S)Oc2ccc3ccccc3c2)c1` [TOLNAFTATE] the “log Ks” value was 3.83.
For `CCCC(C)C1(CC)C(=O)NC(=O)NC1=O` (centres undefined) [PENTOBARBITAL], the “log Ks” value was 3.01.
In the case of `C[C@H](CCC(=O)O)[C@H]1CC[C@H]2[C@@H]3[C@@H](O)C[C@@H]4C[C@H](O)CC[C@]4(C)[C@H]3CC[C@]12C` [URSODIOL], the “log Ks” value is reported as 4.51.
In the case of `CCC(C)c1cccc(O)c1` (centres undefined), the “log Ks” value is reported as 4.06.
With `CC(=O)c1ccc(S(=O)(=O)NC(=O)NC2CCCCC2)cc1` [ACETOHEXAMIDE] the “log Ks” value was 2.94.
For `c1ccc(Cn2ccnc2)cc1` [BENZYLIMIDAZOLE], the “log Ks” value was 2.61.
For `CCCCC(C)O` (centres undefined) [2-HEXANOL], the “log Ks” value was 1.98.
For `CCCCC[C@H](O)/C=C/[C@@H]1[C@H]2C/C(=C/CCCC(=O)O)O[C@H]2C[C@H]1O` [EPOPROSTENOL], the “log Ks” value was 2.94.
For `CC(C)(C)O` [TERT-BUTANOL], the “log Ks” value was 1.68.
With `CC(=O)c1cccc(O)c1` the “log Ks” value was 2.06.
In the case of `CCCCCCC(C)O` (centres undefined), the “log Ks” value is reported as 3.13.
In the case of `CC#N` [ACETONITRILE], the “log Ks” value is reported as -0.27.
For `c1ccc2c(c1)sc1ccccc12` [DIBENZOTHIOPHENE], the “log Ks” value was 3.48.
With `CC(=O)Oc1ccc(Br)cc1` the “log Ks” value was 2.68.
With `Cc1ccc(O)cc1` [p-CRESOL] the “log Ks” value was 2.4.
For `Brc1ccccc1` [BROMOBENZENE], the “log Ks” value was 2.5.
With `CCOc1ccccc1` [PHENETOLE] the “log Ks” value was 2.49.
For `NS(=O)(=O)c1cc2c(cc1Cl)NCNS2(=O)=O` [HYDROCHLOROTHIAZIDE], the “log Ks” value was 1.76.
With `c1ccc2scnc2c1` [BENZO[D]THIAZOLE] the “log Ks” value was 2.38.
With `c1ccc2ncccc2c1` [QUINOLINE] the “log Ks” value was 2.12.
In the case of `CC(C)Oc1ccc(O)cc1`, the “log Ks” value is reported as 2.86.
With `Cc1ccc(/C=C/C(=O)O)cc1` the “log Ks” value was 2.65.
For `O=C(O)CC1CC2CCC1C2` (centres undefined), the “log Ks” value was 3.59.
With `COC(=O)c1ccccc1` [METHYL BENZOATE] the “log Ks” value was 2.5.
In the case of `O=[N+]([O-])c1ccc(O)cc1` [P-NITROPHENOL], the “log Ks” value is reported as 2.39.
For `CC(C)(C)c1cccc(O)c1`, the “log Ks” value was 4.41.
In the case of `CC(=O)Oc1ccc([N+](=O)[O-])cc1` [4-NITROPHENYL ACETATE], the “log Ks” value is reported as 2.13.
For `O=C(O)/C=C/c1ccc(O)cc1` [COUMARIC ACID], the “log Ks” value was 2.83.
With `OCCCO` [1,3-PROPANEDIOL] the “log Ks” value was 0.67.
With `CC(C)CC(C)O` (centres undefined) the “log Ks” value was 2.04.
With `Cc1ccnc(NS(=O)(=O)c2ccc(N)cc2)n1` [SULFAMERAZINE] the “log Ks” value was 1.97.
For `CCCCCCCO` [1-HEPTANOL], the “log Ks” value was 2.85.
In the case of `CCCc1cccc(O)c1`, the “log Ks” value is reported as 3.28.
For `O=C(O)c1ccccc1` [BENZOIC ACID], the “log Ks” value was 2.12.
With `CCCCCCCCO` [OCTANOL] the “log Ks” value was 3.17.
For `CC(C)CCO` [3-METHYLBUTANOL], the “log Ks” value was 2.25.
For `CC(C)(C)CO`, the “log Ks” value was 2.71.
With `CC(=O)Oc1ccc(Cl)cc1` the “log Ks” value was 2.5.
For `CCC(=O)c1cccc(O)c1`, the “log Ks” value was 2.61.
